Measured values published in patent US20120122956A1, “METHODS FOR INHIBITING AN[…] MULTI-ARM POLYMERIC CONJUGATES OF 7-ETHYL-10-HYDROXYCAMPTOTHECIN” (ENZON PHARMACEUTICALS, INC., priority 2009, published 2012).

Assays:
Pharmacokinetics in rats = format: in vivo
Description: Additionally, pharmacokinetic profiles of 4arm PEG-Gly-(7-ethyl-10-hydroxycamptothecin) were investigated in rats. In rats, dose levels of 3, 10 and 30 mg/kg (7-ethyl-10-hydroxycamptothecin equivalent) were used. The pharmacokinetic profiles in rats were consistent with those of mice.

[1] = Solubility in aqueous saline solution; format: physicochemical
[2] = Pharmacokinetics in tumor free Balb/C mice; format: in vivo
Description: Tumor free Balb/C mice were injected with a single injection of 20 mg/kg 4armPEG-Gly-(7-ethyl-10-hydroxycamptothecin) conjugates. At various time points mice were sacrificed and plasma was analyzed for intact conjugates and released 7-ethyl-10-hydroxycamptothecin by HPLC. Pharmacokinetic analysis was done using non-compartmental analysis (WinNonlin).

U251-HRE xenografts = conditions: zero to 125 hours of treatment (FIG. 13)
Source text: (§1) The human glioma cell line, U251-HRE was kindly provided by Dr. Giovanni Melillo at National Cancer Institute (Frederick, Md., United States). The cells were transfected with luciferase reporter plasmids containing three copies of a canonical hypoxia response element (HRE) from the inducible nitric oxide synthase gene (Rapsirada, et al. 2000). U251-HRE tumors were established in the right axillary flank of female Harlan Sprague-Dawley nude mice (Harlan World, Indianapolis, Ind.) by subcutaneous injection of 1×10^7 U251-HRE cells/mouse. […] At each treatment time point, the tumor volume measurements were recorded and the tumor weights (mg) calculated using mg=[tumor length×(tumor width)]/2. […] To do so, the mice were injected intraperineally with 150 mg/kg of D-luciferin Firefly, potassium salt (Biosynth International, Inc., Itasca, Ill.). After 10 minutes, the mice were anesthetized via isofluorane gas and imaged using the Xenogen IVIS 100 Imaging Station (Xenogen Corp., Alameda, Calif.).

[3] = test system: CAMs grafted with tumor biopsy specimens of HTLA-230 or GI-LI-N xenografts; conditions: for number of allantoic vessels radiating towards the tumor specimen: compared to control CAMs, CPT-11 10 or 40 mg/kg, compound 9 10 mg/kg (SN38 based)
Description: Protoc. 2006, 1:85-91. Mice were injected with the human NB cell line, HTLA-230 or GI-LI-N. Tumor biopsy specimens in size of 1-2 mm^3 were obtained from the xenografted mice and then grafted onto the CAMs. […] In the control group, the CAMs were incubated with PBS buffer. […] The CAMs were examined daily for 12 days and photographed in ovo with a stereomicroscope equipped with a camera and image analyzer system (Olympus Italia, Italy). CD31-positive microvessels were measured and normalized with that of the control group. Less CD31-positive microvessels mean greater antiangiogenic effects. Microvessel density was represented by the percentage of the total number of intersection points occupied by CD31-positive vessels cut transversely (diameter of 3-10 μm). Mean values±SD were determined for each analysis.

HIF-1α [4] = assay: HIF-1-dependent luciferase expression in U251-HRE human glioma xenografts; format: in vivo, mice; conditions: for luminescence (HIF-1-dependent luciferase): single dose or multiple doses, 48 hour and 120 hour time points, not normalized
Description: The effect was measured by HIF-1-dependent luciferase expression in the U251-HRE xenografts.
as §1

[5] = 7-ethyl-10-hydroxycamptothecin formation from conjugates in rat plasma; format: in vitro ADME
[6] = 7-ethyl-10-hydroxycamptothecin formation from conjugates in mouse plasma; format: in vitro ADME
[7] = Hydrolysis in human plasma (conjugate half life, 7-ethyl-10-hydroxycamptothecin formation); format: in vitro ADME
Description: In human plasma, 7-ethyl-10-hydroxycamptothecin was steadily released from the PEG conjugates with a doubling time of 22 to 52 minutes and the release appeared to be pH and concentration dependent as described in the following EXAMPLE 24.

[8] = test system: human neuroblastoma cells (GI-LI-N) xenograft tumors; conditions: compared to mice treated with CAMPTOSAR; 10 mg/kg i.v. q2d×5
Description: (§2) Xenograft tumors were established in mice by injecting human neuroblastoma cells (GI-LI-N) in the adrenal gland at day 0 (T0). […] The control group mice received HEPES-buffered saline solution. Histological examination was performed on the tumors removed from the mice at day 44 (T44).
The tissue sections removed from the treated mice in Example 27 were immunostained with TUNEL to evaluate apoptosis, and with primary antibody against histone H2ax (H2AFX) to evaluate DNA-damage dependent histone phosphorylation.

HIF-1α [9] = test system: HIF-1α
Description: (§3) The cancer cells were grown in complete DMEM or RPMI-1640 medium, supplemented with 10% heat-inactivated FCS, as described in Pastorino F. et al., Cancer Res. 2006, 66:10073-82, 2006; Pastorino F. et al., Clin. Cancer Res. 2008, 14:7320-9; and Brignole C, et al., J. Nat'l. Cancer Inst. 2006, 98:1142-57). […] In some experiments (FIGS. 14(B) and (C)), the cancer cells were pre-incubated with 0.15 mM of Desferal (DFX or Deferoxamine purchased from Novartis Pharma in Stein, Swizerland) for 6 hours to induce HIF-1α. […] The cells were collected and western blotting analysis was performed using cell lysates as described in Pagnan G. et al., Clin. Cancer Res. 2009, 15:1199-209). Monoclonal anti-p53 (clone PAb 1801) and anti-HIF-1α (clone 54) were purchased from BD Biosciences (Buccinasco, Mich., Italy). Anti-HIF-2α (clone ep190b), and an anti-GAPDH (clone 14c10) antibodies were from Novus Biologicals, Inc (Cambridge, UK) and Cell Signaling Technology (Danvers, Mass., US), respectively.

HIF-2α = conditions: GI-LI-N, HTLA-230, SH-SY5Y cells, 24 and 48 hours
Description: as §3

[10] = test system: human neuroblastoma cells (GI-LI-N) xenograft tumors; assay: Tumor angiogenesis and invasion in orthotopic GI-LI-N xenografted mice (VEGF, CD31, MMP-2, MMP-9 staining); format: in vivo
Description: as §2
The tissue sections were stained with antibodies against VEGF and CD31 to evaluate inhibition of angiogenesis. […] Cell nuclei were stained with DAPI. Morphometric analysis was performed on 9 randomly selected fields every 3 sections, observed at 200× magnification with an Olympus photomicroscope, using Image Analysis software (Olympus Italia). […] The sections were then washed twice in PBS and saturated with 2% BSA in PBS. In the morphometric analysis, the mean value in each image from the section, the final mean value for all the images and the SEM were calculated. The statistical significance of the differences between the mean values of the different experimental conditions was determined by Student's t test (GraphPad software). Findings were considered significant at P values <0.05 for all statistical evaluations.

[11] = released 7-ethyl-10-hydroxycamptothecin
[12] = 7-ethyl-10-hydroxycamptothecin released from Compound 9, single injection 20 mg/kg of conjugate
[13] = multiple doses at MTD (q2d×3, day 0, 2, 4; compound 9 10 mg/kg, CPT-11 40 mg/kg), 120 hours
[14] = 10 mg/kg i.v. q2d×5, tumors removed day 44
[15] = significantly when compared to Camptosar (P<0.05), 10 mg/kg i.v. q2d×5

CCc1c2c(nc3ccc(O)cc13)-c1cc3c(c(=O)n1C2)COC(=O)[C@]3(O)CC [7-ethyl-10-hydroxycamptothecin]
apparent elimination half life (Pharmacokinetics in rats; 7-ethyl-10-hydroxycamptothecin released from 4armPEG-Gly conjugate): 21 to 22 h | Enterohepatic circulation (Pharmacokinetics in rats; [11]): observed | clearance (Pharmacokinetics in rats; [11]): 0.131 L/h/kg | estimated Vss (Pharmacokinetics in rats; [11]): 2.384 L/kg | Solubility in Saline [1]: ^a7-ethyl-10-hydroxycamptothecin is not soluble in saline. | AUC [2, 12]: 98.3 µg·h/mL | CL [2, 12]: 0.202 L/h/kg | Cmax [2, 12]: 13.2 µg/mL | Terminal t1/2 [2, 12]: 14.2 h | Vss [2, 12]: 3.094 L/kg | terminal elimination half-life ([2]; 7-ethyl-10-hydroxycamptothecin released from the conjugate, mice): 18 to 26 h | Enterohepatic circulation ([2]; released 7-ethyl-10-hydroxycamptothecin, mice): observed

CCc1c2c(nc3ccc(OC(=O)N4CCC(N5CCCCC5)CC4)cc13)-c1cc3c(c(=O)n1C2)COC(=O)[C@]3(O)CC [CPT-11, reference compound]
tumor mass (U251-HRE xenografts): reduced | number of allantoic vessels radiating towards the tumor specimen [3]: decreased | downregulation of HIF-1α (luminescence normalized for tumor mass, change from baseline) (HIF-1α [4]; multiple doses (q2d×3, CPT-11 40 mg/kg), 48 hours): 15% | downregulation of HIF-1α (luminescence normalized for tumor mass, change from baseline) (HIF-1α [4]; [13]): 32% | luminescence (HIF-1-dependent luciferase) (HIF-1α [4]): minimal effect | downregulation of HIF-1α (HIF-1α [4]; single injection (qd×1, CPT-11 80 mg/kg)): no downregulation

^40K4arm-PEG-Sar-(20)-(7-ethyl-10-hydroxycamptothecin) [Compound 23]
Doubling Time in Plasma, Rat (7-ethyl-10-hydroxycamptothecin formation rate from conjugates) [5]: 481 min | Doubling Time in Plasma, Mouse (7-ethyl-10-hydroxycamptothecin formation rate from conjugates) [6]: 43.4 min | Doubling Time in Plasma, Human (7-ethyl-10-hydroxycamptothecin formation rate from conjugates) [7]: 28.8 min | t1/2 in Human Plasma (PEG conjugate half life) [7]: 0.317 h

^40k4arm-PEG-Ala-(20)-(7-ethyl-10-hydroxycamptothecin) [Compound 12]
Doubling Time in Plasma, Rat (7-ethyl-10-hydroxycamptothecin formation rate from conjugates) [5]: 753 min | Solubility in Saline [1]: 121 mg/mL | Doubling Time in Plasma, Mouse (7-ethyl-10-hydroxycamptothecin formation rate from conjugates) [6]: 45.8 min | Doubling Time in Plasma, Human (7-ethyl-10-hydroxycamptothecin formation rate from conjugates) [7]: 51.9 min | t1/2 in Human Plasma (PEG conjugate half life) [7]: 0.208 h

^40k4arm-PEG-Gly(20)-(7-ethyl-10-hydroxycamptothecin) [Compound 9]
tumor mass (U251-HRE xenografts): reduced | number of allantoic vessels radiating towards the tumor specimen [3]: decreased | number of radiating vessels which invade the tumor specimen ([3]; compound 9 compared to CPT-11, P<0.01): much less | Histone H2ax staining in tumor tissues [8]: enhanced | TUNEL staining in tumor tissues (apoptosis) [8]: enhanced | constitutive HIF-1α protein levels (HIF-1α [9]; human neuroblastoma cells, 24 hours (FIG. 14B)): decreased | DFX-induced HIF-1α protein levels (HIF-1α [9]; pre-incubated with 0.15 mM Desferal 6 hours, then treated 24 hours (FIG. 14C)): decreased | expression of HIF-2α protein (HIF-2α): inhibited | CD31 expression in primary NB tumors [10, 14]: inhibited | VEGF expression in primary NB tumors [10, 14]: inhibited | number of CD31-positive endothelial cells ([10]; compared to mice treated with CAMPTOSAR, P<0.05, 10 mg/kg i.v. q2d×5): decreased | MMP-2 expression [10, 15]: inhibited | MMP-9 expression [10, 15]: inhibited | downregulation of HIF-1α (luminescence normalized for tumor mass, change from baseline) (HIF-1α [4]; [13]): 93% | downregulation of HIF-1α (luminescence normalized for tumor mass, change from baseline) (HIF-1α [4]; single dose (qd×1, compound 9 30 mg/kg), 48 hours): 37% | downregulation of HIF-1α (luminescence normalized for tumor mass, change from baseline) (HIF-1α [4]; single dose (qd×1, compound 9 30 mg/kg), 120 hours): 83% | luminescence (HIF-1-dependent luciferase) (HIF-1α [4]): diminished luminescence

^40k4arm-PEG-Met-(20)-(7-ethyl-10-hydroxycamptothecin) [Compound 18]
Doubling Time in Plasma, Rat (7-ethyl-10-hydroxycamptothecin formation rate from conjugates) [5]: 1920 min | Solubility in Saline [1]: 142 mg/mL | Doubling Time in Plasma, Mouse (7-ethyl-10-hydroxycamptothecin formation rate from conjugates) [6]: 41.9 min | Doubling Time in Plasma, Human (7-ethyl-10-hydroxycamptothecin formation rate from conjugates) [7]: 22.2 min | t1/2 in Human Plasma (PEG conjugate half life) [7]: 0.447 h
